Patent US20260216174A1, “TREATMENT OF ER+ BREAST CANCER COMPRISING HOMOLOGOUS RECOMBINATION DEFICIENCY USING PARG INHIBITOR” (IDEAYA BIOSCIENCES, INC., priority 2023, published 2026)

Tested on: HCC1428 tumors
Test: Cell line derived xenograft (CDX) study with HCC1428 tumors
Assay type: in vivo, BALB/c nude mice
Conditions: 45 mg/kg QD p.o.; for TGI value: versus vehicle group
Procedure: For this xenograft, supplemental estradiol benzoate injections (40 μg/20 μl/mouse) are administered subcutaneously twice a week to BALB/c nude mice, starting one week prior to cell implantation and continuing through to the end of study. After implantation, HCC1428 tumor were allocated to treatment arms once a median tumor volume of about 181 mm^3 was reached. In Table 3A the abbreviation “p.o.” refers to oral administration and the abbreviation “QD×28” refers to administration once a day for 28 days.
Tumors were measured and mice were weighed twice a week during the experimental period. The tumor volume (mm3) was estimated using the formula: TV=a×b2/2, where “a” and “b” were the long and the short diameter of a tumor, respectively. The Tumor volumes were used to calculate tumor growth inhibition (TGI, an indicator of antitumor activity) using the formula: TGI %: (1−{T/T0/Ct/C0}/1−{C0/Ct})×100 where Tt=median tumor volume of treated at time t, T0=median tumor volume of treated at time 0, Ct=median tumor volume of control at time t and C0=median tumor volume of control at time 0.
For this xenograft, supplemental estradiol benzoate injections (40 μg/20 μl/mouse) are administered subcutaneously twice a week to BALB/c nude mice, starting one week prior to cell implantation and continuing through to the end of study. After implantation, HCC1428 tumor were allocated to treatment arms once a median tumor volume of about 181 mm^3 was reached. In Table 4A the abbreviation “p.o.” refers to oral administration and the abbreviation “QD×28” refers to administration once a day for 28 days.
Tumors were measured and mice were weighed twice a week during the experimental period. The tumor volume (mm^3) was estimated using the formula: TV=a×b2/2, where “a” and “b” were the long and the short diameter of a tumor, respectively. The Tumor volumes were used to calculate tumor growth inhibition (TGI, an indicator of antitumor activity) using the formula: TGI %: (1−{T/T0/Ct/C0}/1−{C0/Ct})×100 where Tt=median tumor volume of treated at time t, T0=median tumor volume of treated at time 0, Ct=median tumor volume of control at time t and C0=median tumor volume of control at time 0. […] At 100 mg/kg QD the mean tumor volume achieved was 116 mm3, on Day 71. The tumor growth inhibition (TGI) of these treatments compared with vehicle group on Day 28 or 71 of the treatment is summarized in Table 4B (See FIG. 3).

Q: `NC(=O)c1cccc2cn(-c3ccc([C@@H]4CCCNC4)cc3)nc12` [niraparib, reference compound] was tested. Which mean tumor volume (Compound A study) did it give?
A: Its mean tumor volume is 230 mm^3.

Q: And the TGI value (Compound A study)?
A: Its TGI value is 75.2%.

Q: What about the mean tumor volume (Compound B study) of the same compound?
A: The mean tumor volume was 230 mm^3.

Q: What about the TGI value (Compound B study) of the same compound?
A: The TGI value was 75.2%.
